Structures can show the parent of a compound that is named as a salt. Where two headings read alike, the source gives them in different places.
What was measured:
[1] = target: T1, SARS-CoV-2 PLpro (nsp3 1564–1878) (Severe acute respiratory syndrome coronavirus 2, UniProt P0DTD1); experiment: biochemical; set-up: FRET-quenched peptide (Pro3) cleavage by PLpro, 10 min pre-incubation, slope over 20 min, normalised to no-compound control; conditions: low concentration screen, read-out: % of control remaining
[2] = target: T1, SARS-CoV-2 PLpro (nsp3 1564–1878); experiment: biochemical; set-up: FRET-quenched peptide (Pro3) cleavage by PLpro, 10 min pre-incubation, slope over 20 min, normalised to no-compound control; conditions: high concentration screen, read-out: % of control remaining
Description: The plates were organized with columns 3–22 containing the compounds; the remaining columns were used for reaction controls including substrate only and substrate with enzyme but no compound (Figure 3Aii). The PLpro enzyme was pre-incubated with the compounds for 10 min, and then the reaction was initiated by the addition of substrate. […] We incubated the inhibitors with PLpro before the enzymatic reaction so that the slow-binding inhibitors will not be missed out [21]. […] Fluorescence was read on a Spark multimode microplate reader (Tecan) with an excitation wavelength at 330 nm and emission wavelength at 420 nm. […] An amount of 5 µl of the enzyme was pre-incubated with compounds for 10 min before the addition of 15 µl substrate. Fluorescence was monitored at 2 min for 20 min with 3 min intervals giving a total of seven readings.

For `Cc1cccc(NC(=O)Nc2ccc(-c3csc4ncnc(N)c34)cc2)c1` [GDP366], the remaining activity at 1.25 µM ([1]; Well no.=6976) was 101% and the remaining activity at 3.75 µM ([2]; Well no.=6976) was 99.1%.

For `Cc1cc(Cc2cc(C)cc(C(C)(C)C)c2O)c(O)c(C(C)(C)C)c1` [GERI-BP002-A], the remaining activity at 1.25 µM ([1]; Well no.=3701) was 97.3% and the remaining activity at 3.75 µM ([2]; Well no.=3701) was 101%.

`Cc1cc(Cc2cc(C)cc(C(C)(C)C)c2O)c(O)c(C(C)(C)C)c1` [GERI-BP002A] showed a remaining activity at 1.25 µM ([1]; Well no.=3907) of 104% and a remaining activity at 3.75 µM ([2]; Well no.=3907) of 97.7%.

With `CN(C)CCCn1cc(C2=C(c3c[nH]c4ccccc34)C(=O)NC2=O)c2ccccc21` [GF 109203X - 2-[1-(3-Dimethylaminopropyl)indol-3-yl]-3-(indol-3-yl) maleimide] the remaining activity at 1.25 µM ([1]; Well no.=2340) was 103% and the remaining activity at 3.75 µM ([2]; Well no.=2340) was 106%.

`COC(=O)[C@H](CC(C)C)NC(=O)c1ccc(NC[C@@H](N)CS)cc1-c1cccc2ccccc12` [GGTI298 Trifluoroacetate] was tested, and the remaining activity at 1.25 µM ([1]; Well no.=8456) was 97.5% and the remaining activity at 3.75 µM ([2]; Well no.=8456) was 86.9%.

With `COC(=O)[C@H](CC(C)C)NC(=O)c1ccc(NC[C@@H](N)CS)cc1-c1cccc2ccccc12` [GGTI298] the remaining activity at 1.25 µM ([1]; Well no.=8076) was 106% and the remaining activity at 3.75 µM ([2]; Well no.=8076) was 101%.

`CN(C)c1cccc(-c2c3c(=O)n(-c4ccccc4Cl)[nH]c3cc(=O)n2C)c1` [GKT137831] was tested, and the remaining activity at 1.25 µM ([1]; Well no.=9078) was 96.8% and the remaining activity at 3.75 µM ([2]; Well no.=9078) was 89.9%.

In the case of `N#CN=C(NCCCCCCOc1ccc(Cl)cc1)Nc1ccncc1` [GMX1778 (CHS828)], the remaining activity at 1.25 µM ([1]; Well no.=8486) is reported as 93.1% and the remaining activity at 3.75 µM ([2]; Well no.=8486) is reported as 95.9%.

Work on `O=C(NCCO)c1cccc(-c2cc(Nc3ccc(OC(F)(F)F)cc3)ncn2)c1` [GNF-5] yielded a remaining activity at 1.25 µM ([1]; Well no.=5861) of 105% and a remaining activity at 3.75 µM ([2]; Well no.=5861) of 98.1%.

Molecule `O=C1c2cc([N+](=O)[O-])ccc2-n2c1nc1ccccc1c2=O` [GNF-PF-3777] has a remaining activity at 1.25 µM ([1]; Well no.=8414) of 88.1%, a remaining activity at 1.25 µM ([1]; Well no.=8695) of 103% and a remaining activity at 3.75 µM ([2]; Well no.=8414) of 78.5%. The remaining activity at 3.75 µM ([2]; Well no.=8695) was 99%.

Work on `O=C(O)CC1CCC2(CC1)CCN(c1cc(OC(F)(F)F)ccc1Cl)CC2` [GPR120-IN-1] yielded a remaining activity at 1.25 µM ([1]; Well no.=8485) of 104% and a remaining activity at 3.75 µM ([2]; Well no.=8485) of 96.8%.

Molecule `OC[C@H]1O[C@@H](n2cnc3c(N[C@H]4CCC[C@@H]4O)ncnc32)[C@H](O)[C@@H]1O` [GR79236] has a remaining activity at 1.25 µM ([1]; Well no.=7817) of 105%, a remaining activity at 1.25 µM ([1]; Well no.=7852) of 94.1% and a remaining activity at 1.25 µM ([1]; Well no.=8455) of 108%. The remaining activity at 3.75 µM ([2]; Well no.=7817) was 105%, the remaining activity at 3.75 µM ([2]; Well no.=7852) was 93.8% and the remaining activity at 3.75 µM ([2]; Well no.=8455) was 110%.

`COC(=O)N1CCN(C(=O)Cc2ccc(Cl)c(Cl)c2)C(CN2CCCC2)C1` (stereo not drawn) [GR-89696 fumarate] showed a remaining activity at 1.25 µM ([1]; Well no.=462) of 101% and a remaining activity at 3.75 µM ([2]; Well no.=462) of 99.8%.

With `CC(C)(C)[C@H]1CC[C@H](N(Cc2ccc(C(=O)NCCC(=O)O)cc2)C(=O)Nc2ccc(OC(F)(F)F)cc2)CC1` [GRA Ex-25] the remaining activity at 1.25 µM ([1]; Well no.=6180) was 103% and the remaining activity at 3.75 µM ([2]; Well no.=6180) was 106%.

With `NCC(=O)N[C@@H](CCCN=C(N)N)C(=O)NCC(=O)N[C@@H](CC(=O)O)C(=O)N[C@@H](CO)C(=O)N1CCC[C@H]1C(=O)O` [GRGDSP (TFA)] the remaining activity at 1.25 µM ([1]; Well no.=7558) was 102% and the remaining activity at 3.75 µM ([2]; Well no.=7558) was 109%.

`Nc1cccc(-c2cc3c(Oc4cccc(O)c4)ncnc3[nH]2)c1` [GSK3b Inhibitor XII, TWS119] was tested, and the remaining activity at 1.25 µM ([1]; Well no.=2608) was 97.8% and the remaining activity at 3.75 µM ([2]; Well no.=2608) was 95.8%.

For `CC(C)(C)S(=O)(=O)c1ccc2nccc(Nc3n[nH]c4ccc(F)cc34)c2c1` [GSK583], the remaining activity at 1.25 µM ([1]; Well no.=6206) was 101% and the remaining activity at 3.75 µM ([2]; Well no.=6206) was 94.3%.

For `COc1cccc(-n2c(=O)[nH]c3cc(Cl)n(-c4ccc(-c5cccc(OC)c5O)cc4)c3c2=O)c1` [GSK621], the remaining activity at 1.25 µM ([1]; Well no.=8626) was 101% and the remaining activity at 3.75 µM ([2]; Well no.=8626) was 99.7%.

For `COC(=O)c1sccc1S(=O)(=O)Nc1ccc(Nc2ccccc2)cc1OC` [GSK0660], the remaining activity at 1.25 µM ([1]; Well no.=5869) was 111% and the remaining activity at 3.75 µM ([2]; Well no.=5869) was 109%.

`CCS(=O)(=O)c1ccc(CC(=O)Nc2cc(Cl)c(-c3ccccc3OC(F)(F)F)c(Cl)c2)cc1` [GSK805] gave a remaining activity at 1.25 µM ([1]; Well no.=8657) of 103% and a remaining activity at 3.75 µM ([2]; Well no.=8657) of 94.7%.

With `O=C(NCCS(=O)(=O)c1ccc(C(F)(F)F)cn1)c1ccc(Cl)cc1` [GSK3787] the remaining activity at 1.25 µM ([1]; Well no.=5216) was 91.7% and the remaining activity at 3.75 µM ([2]; Well no.=5216) was 95.3%.
